What all share (type): cell-based, rat
Series [1] concerns caspase-3. Put plainly: Caspase-3 activity (colorimetric, Ac-DEVD-pNA cleavage) after hypoxia. The following applies: hypoxia 24 hours; 100 μM of agmatine or 50 μM of Z-VAD-FMK. As for the experimental part: The RGC-5 cell line, which is a RGC line developed from post-natal Sprague-Dawley rats, was grown in modified Dulbecco's Modified Eagle's Medium (DMEM; Gibco) supplemented with 10% of heat inactivated fetal bovine serum (Gibco) and 100 U/mL of penicillin and 100 μg/mL of streptomycin (Gibco). The cells were passaged every 2 to 3 days, and the cultures incubated at 37° C. in 5% of CO2 and air. […] For all experiments, cells were used at an 80% confluence. Cultures were transferred into a closed hypoxic chamber (Form a Scientific Co.) in which oxygen level (5% of O2, 5% of CO2, 90% of N2) and temperature (37° C.) were controlled. After washing twice with deoxygenated serum-free DMEM, cells were maintained in the hypoxic chamber. Control cells were not exposed to hypoxia. Agmatine or BDNF were added to the culture medium at the start of injury as indicated. Caspase-3 activity was measured using the CaspACE™ colorimetric assay system (Promega, Cat no. G7220) according to the manufacturer's instructions. Briefly, cells were harvested and resuspended in cell lysis buffer (10^8 cells/mL). […] After incubating at 37° C. for 4 hours, absorbance was measured using a microplate reader at 405 nm. Absorbance of each sample was determined by subtraction of the mean absorbance of the blank from that of each sample.

Series [2] deals with RGC-5. Put plainly: Annexin-V assay (flow cytometry), TNF-α-induced apoptosis. Conditions: 50 ng/mL of TNF-α. On the procedure: (§1) The RGC-5 cell line, which is an RGC line developed from post-natal Sprague-Dawley rats, was grown in modified DMEM (Gibco) supplemented with 10% of heat inactivated fetal bovine serum (Gibco) and 100 U/mL of penicillin and 100 μg/mL of streptomycin (Gibco). The cells were passaged every 2 to 3 days and incubated at 37° C. in 5% of CO2 and air. At cultivation, the cells had the same morphology. For all experiments, cells were used at 80% of confluence.
(§2) After washing twice with PBS, cells were cultured in serum-free DMEM and treated with either 10 or 50 ng/mL of recombinant rat TNF-α (Chemicon) for up to 48 hours. The control cells were not exposed to TNF-α. 100 μM of agmatine was added to the culture medium at the start of injury as indicated.
The percentage of cells actively undergoing apoptosis was determined by flow cytometry using the Annexin V-FITC Apoptosis Detection Kit (BD Biosciences, Cat no. 556547) according to the manufacturer's instructions. Briefly, cells were harvested and resuspended in binding buffer (10^6 cells/mL). 10^5 cells were mixed with 5 μL of annexin V-FITC and 5 μL of PI. After incubating at room temperature for 15 minutes in the dark, analysis was performed by flow cytometry.

Series [3] concerns RGC-5. Put plainly: Hoechst 33342 and PI staining after TNF-α. As for the experimental part:
as §1, §2
Apoptotic or necrotic cell death was characterized by double staining cells with Hoechst 33342 and PI. Cells were stained with 10 μg/mL of Hoechst 33342 and 10 μg/mL of PI at 37° C. for 30 minutes. After being washed twice with PBS, cells were imaged with a digital camera attached to a fluorescence microscope.

Turning to `N=C(N)NCCCCN` [agmatine], the “hypoxia-induced caspase-3 activity” value in series [1] is listed as “equally suppressed”. Also, the “proportion of apoptotic cells” value in series [2] (12 hour exposure, agmatine 100 μM) is on record as “no significant difference”; in series [2] (24 hours of exposure, 100 μM of agmatine), “significant decrease in apoptotic cells”. Besides, the “RGC loss (Hoechst-positive / PI-positive cells)” value in series [3] (50 ng/mL of TNF-α for 48 hours, 100 μM of agmatine) is on record as “RGC loss was prevented”. The “effect on culture (Hoechst-positive / PI-labeled cells)” value in series [3] (only 100 μM of agmatine, no TNF-α, 48 hours) is “did not have a significant effect”.

For the origin of these results see patent publication US8084502B2, “Use of agmatine for protection of retinal ganglion cells” (priority 2007, dated 2011).
